According to US7939530B2, “Treatment of lymphoma using 10-propargyl-10-deazaaminopterin and gemcitabine” (Sloan-Kettering Institute for Cancer Research, priority 2004, dated 2011):

How the values were obtained:
[1] = test system: caspase 3 in SKI-DLCL-1 cells; test: Caspase 3 activation (EnzChek Caspase-3 Assay Kit #2, Z-DEVD-R110 cleavage); type: cell-based, human
Description: To further evaluate the activity of PDX and Gem combinations, Caspase activity was tested by EnzChek® Caspase-3 Assay Kit #2 (Molecular Probes) based upon the fluorometric detection of caspase-dependent Z-DEVD-R110 cleavage (rhodamine 110 bis-[N-CBZ-L-aspartyl-L-glutamyl-L-valyl-L-aspartic acid amide], a non-fluorescent bisamide), which, via a two step process, first yields the monoamide product (weakly fluorescent) and then the fluorescent product R110 (rhodamine 110, strongly fluorescent). Detection was performed on a Fluoroskan Ascent FL fluorescent plate reader (Thermo Lab Systems, Helsinki, Finland) according to the manufacturer's guidelines.

[2] = test system: SKI-DLCL-1 lymphoma cells; test: Trypan Blue Exclusion cytotoxicity assay of single agents and combinations; type: cell-based, human; conditions: MTX 10 nM, PDX 1 nM, Ara-C 40 nM, Gem 10 nM, control = 1
Description: As set forth in greater detail in the examples herein, combination therapy using PDX and gemcitabine has been tested in vitro and in in vivo model systems for efficacy against lymphoma. Table 1 sets forth data obtained in a cytotoxicity assay (Example 2) using SKI-DLCL-1 lymphoma cells. SKI-DLCL-1 is a diffuse large b cell lymphoma (DLBCL) cell line that is particularly resistant to PDX.
In Table 1, the additive effect is in each case the % of control for the single agents multiplied together. The expected additive effect for PDX+Gem is better than for MTX and ara-C, because the agents are individually better. What is observed for both MTX/AraC combinations and PDX/Gem combinations is that the actual result is better than the predicted additive result. The extent of this synergism is quantified in Table 1 as (actual-additive)/additive so that the amount of reduction that occurs through the use of the combination is expressed as a percentage of the expected additive benefit.
To evaluate cytotoxicity of combination of PDX and GEM, a Trypan Blue Exclusion Assay was performed by aliquoting 5×10^5 SKI-DLBCL cells into each well of a 24 well plate with a final volume of 1 milliliter. Each drug was added in duplicate to the plate wells as follows: alone (MTX 10 nM, PDX 1 nM, Ara-C 40 nM, or Gem 10 nM), PDX+Gem or MTX+Ara-C for 48 h (hours). For the scheduled administration of drug, PDX or MTX alone were dispensed in additional duplicate wells. After 24 hours Gem and Ara-C were added to these wells, respectively, and incubated for 48 hours. At the end of incubation, 20 l of each cell culture was added to 20 l of trypan blue, after which […] was added to a hemocytometer (Hausser Scientific, Horsham, Pa.), where viable cells were counted based upon the presence (dead cells) or exclusion (live cells) of dye.

[3] = test system: HT (Diffuse large B cell) cell line; test: Growth inhibition in vitro (XTT or Alamar blue); type: cell-based, human; conditions: 5 day continuous drug exposure
Description: A PDX preparation prepared in accordance with Example 1 and an MTX preparation were tested for cytotoxicity against a panel of five human lymphoma cell lines. Experiments were performed as described previously. (Sirotnak et al., Cancer Chemother. Pharmacol. 12: 18-25 (1984). In brief, 2.5 to 5×10^3 cells were plated per well in 96-well flat bottom plates. Drug was added in a 0.9% NaCl solution (pH 7.0) over a range of concentrations, and cells were continuously exposed to drug for 5 days. Colorimetric dye (XTT or Alamar blue) was added for an addition period of time (XTT dye, 6 hours, Alamar blue, 24 hours). Each plate was then read on an automated plate reader at 590 nm. The percentage of inhibition was calculated as growth of cells exposed to drug divided by growth of controls (cells incubated with media only). IC50 values were determined as the drug concentrations at which cell growth was inhibited 50% as compared to controls. Experiments were repeated as lest three times. Experiments were also conducted with continuous drug exposures lasting for 3 and 4 days with results similar to the 5 day results.

[4] = cited from earlier work
[5] = test system: SKI-DLCL-1 (Diffuse large B Cell) cell line; test: Growth inhibition in vitro (XTT or Alamar blue); type: cell-based, human
Description: A PDX preparation prepared in accordance with Example 1 and an MTX preparation were tested for cytotoxicity against a panel of five human lymphoma cell lines. Experiments were performed as described previously. (Sirotnak et al., Cancer Chemother. […] Colorimetric dye (XTT or Alamar blue) was added for an addition period of time (XTT dye, 6 hours, Alamar blue, 24 hours). Each plate was then read on an automated plate reader at 590 nm. The percentage of inhibition was calculated as growth of cells exposed to drug divided by growth of controls (cells incubated with media only). […] Experiments were repeated as lest three times.

[6] = test system: subcutaneous tumors of SKI; test: Preliminary combination xenograft experiment; type: in vivo, irradiated NOD-SCID mice; conditions: 60 mg/kg; regrowth by day 44 after initial response
Description: Given the experience that SKI-DLCL-1 is the most PDX resistant line in the panel, it was selected for these in vivo synergy experiments. […] All animals were treated with the maximum tolerated dose (MTD) of each drug, save the combination studies.

[7] = test system: SKI-DLBCL-1 xenografts; test: TUNEL immunohistochemical staining for apoptosis in xenografts; type: in vivo, mice; conditions: day 21; four doses on days 0, 3, 7 and 10; MTX 40 mg/kg, PDX 60 mg/kg
Description: Immunohistochemical staining for apoptosis as measured by terminal deoxynucleotide transferase-mediated nick end-labeling (TUNEL) was performed on SKI-DLBCL-1 xenografts from mice sacrificed at day 21 following initiation of antifolate therapy. Mice received four doses of saline, MTX (40 mg/kg) or PDX (60 mg/kg) on days 0, 3, 7 and 10.

[8] = test system: SKI-DLCL-1 cells; test: Induction of apoptosis (YO-PRO-1/propidium iodide flow cytometry); type: cell-based, human; conditions: all drugs 1 nM, total exposure 72 hours, sequential: first drug 24 hours prior to second
Description: Ara-C, PDX and Gem in combined and scheduled exposures. In each case, the total exposure time was 72 hours. In sequential treatments, the first drug was administered 24 hours prior to the second drug.
To assess apoptosis occurring as a result of combination therapies, apoptosis was assessed using two well standardized techniques. In the first (YO-PRO), cell membrane permeability was determined by measuring fluorescence of treated and control cells. 2×10^7 SKI-DLBCL cells were treated with either MTX, Ara-C, Gem or PDX alone or combinations of drug given together or scheduled. All drugs were assayed at equimolar concentrations (i.e. 1 nM). The incubation conditions were modeled after the in vitro cytotoxicity experiments. Single agent drugs or combinations of all drugs studied without schedule considerations were incubated for 72 hours, while drugs that were studied in some schedule were introduced in a 24+48 incubation scheme (i.e. drug B added 24 hours following drug A, then incubated for an additional 48 hours for a total incubation time of 72 hours). Cells were then collected, washed twice and re-suspended at a concentration of 1×10^6/mL in DPBS. Membrane permeability was detected via the differential cellular permeability of the fluorescent dyes YO-PRO®-1 and propidium iodide by flow cytometry, as per the manufacturer's guidelines (Vybrant apoptosis kit #4, Molecular Probes, Eugene, Oreg.). In addition to monitoring apoptosis, cell cycle kinetic analyses were also performed on all treated cells based the propidium iodide binding. Apoptotic cells were noted to be permeable to the green fluorescent dye YO-PRO®-1 (em 530, FL-1), and impermeable to the red fluorescent dye propidium iodide (em 575, FL-3). Typically, […] cells allow the entrance of both dyes, whereas living cells are impermeable to both dyes.

SMILES: C#CCC(Cc1cnc2nc(N)nc(N)c2n1)c1ccc(C(=O)N[C@@H](CCC(=O)O)C(=O)O)cc1 (some centres unmarked) [PDX, 10-Propargyl-10-deazaminopterin]
- Fluorescence at 485ex/527em ([1]; 1 nM, control 134.3): 265.5
- Difference from control ([1]; fluorescence at 485ex/527em): 131.2
- fraction of control [2]: 0.84
- IC50 [3]: 2 ± 0.4 nM
- maximum tolerated dose (MTD) ([4]; intraperitoneal, twice weekly for two weeks): 60 mg/kg
- toxic deaths at the MTD ([4]; nude mice): no toxic deaths
- IC50 ([5]; SKI-DLCL-1, 5 day continuous drug exposure): 5.1 ± 0.1 nM
- EC50 in SKI-DLCL-1 relative to other B-cell lymphoma cell lines ([5]; roughly, fold greater): 2 to 3 fold
- tumor volume as % of initial tumor volume [6]: 739%
- apoptotic cells in tumor tissue (TUNEL) [7]: high level of apoptotic cells
- % change in apoptosis [8]: 28.21%
